Experimental data reported in PubChem BioAssay AID1963441 (Molecular Pharmacology Branch, DTP, NCI, 2024).
Values joined by “and” are separate entries in the source; they are usually repeats but may differ in a detail not shown here. Identical values can stand only once.

System: NCI-H1876 complex spheroid growth, % test/control
Assay: Anticancer human tumor NCI-H1876 cell line growth inhibition [Asc];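 further: compound exposure lasted 7 days starting three days after seeding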;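 on viability, T/C: 100% = DMSO vehicle control wells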
Conditions: for viability, T/C: stronger effect = lower value; active means viability on the fitted dose curve at most 10% of control; inactive means the rest
Outline: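 Stromal components (HUVEC and hMSC) are co-assembled with the cancer cells into multicellular spheroids. Drugs are then added singly or paired, at concentrations falling by half-log increments from a clinically achievable maximum, capped at 10 microM without known Cmax.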

COc1c(OCCCN2CCOCC2)ccc2c3n(c(=NC(=O)c4cnc(N)nc4)nc12)CCN3 + CCN1C(C(=O)NC23CCC(C(=O)O)(CC2)CC3)C(c2cccc(Cl)c2F)C2(C(=O)Nc3cc(Cl)ccc32)C12CCCCC2
0.719 µM: IC50 (curve of first compound, second compound 0.00949 µM)
0.69 µM: IC50 (curve of first compound, second compound 0.0949 µM)
0.543 µM: IC50 (curve of first compound, second compound 3 µM)
0.741 µM: IC50 (curve of first compound, second compound 0.03 µM)
0.614 µM: IC50 (curve of first compound, second compound 0.949 µM)
0.718 µM: IC50 (curve of first compound, second compound 0.3 µM)
inactive: viability, T/C (second compound 0.00949 µM, first compound 0.00316 µM) 96.8% | viability, T/C (second compound 0.00949 µM, first compound 0.01 µM) 93.6% | viability, T/C (second compound 0.00949 µM, first compound 0.0316 µM) 101% | viability, T/C (second compound 0.00949 µM, first compound 0.1 µM) 72.7% | viability, T/C (second compound 0.00949 µM, first compound 0.316 µM) 66.4% | viability, T/C (second compound 0.00949 µM, first compound 1 µM) 44% | viability, T/C (second compound 0.03 µM, first compound 0.00316 µM) 133% | viability, T/C (second compound 0.03 µM, first compound 0.01 µM) 96% | viability, T/C (second compound 0.03 µM, first compound 0.0316 µM) 94.2% | viability, T/C (second compound 0.03 µM, first compound 0.1 µM) 70.6% | viability, T/C (second compound 0.03 µM, first compound 0.316 µM) 59.8% | viability, T/C (second compound 0.03 µM, first compound 1 µM) 45.8% | viability, T/C (second compound 0.0949 µM, first compound 0.00316 µM) 99.3% | viability, T/C (second compound 0.0949 µM, first compound 0.01 µM) 96.2% | viability, T/C (second compound 0.0949 µM, first compound 0.0316 µM) 90.8% | viability, T/C (second compound 0.0949 µM, first compound 0.1 µM) 77.5% | viability, T/C (second compound 0.0949 µM, first compound 0.316 µM) 67.3% | viability, T/C (second compound 0.0949 µM, first compound 1 µM) 42.1% | viability, T/C (second compound 0.3 µM, first compound 0.00316 µM) 96.8% | viability, T/C (second compound 0.3 µM, first compound 0.01 µM) 96% | viability, T/C (second compound 0.3 µM, first compound 0.0316 µM) 93% | viability, T/C (second compound 0.3 µM, first compound 0.1 µM) 70.6% | viability, T/C (second compound 0.3 µM, first compound 0.316 µM) 65.9% | viability, T/C (second compound 0.3 µM, first compound 1 µM) 44.1% | viability, T/C (second compound 0.949 µM, first compound 0.00316 µM) 108% | viability, T/C (second compound 0.949 µM, first compound 0.01 µM) 105% | viability, T/C (second compound 0.949 µM, first compound 0.0316 µM) 92.4% | viability, T/C (second compound 0.949 µM, first compound 0.1 µM) 75.4% | viability, T/C (second compound 0.949 µM, first compound 0.316 µM) 58.7% | viability, T/C (second compound 0.949 µM, first compound 1 µM) 43.9% | viability, T/C (second compound 3 µM, first compound 0.00316 µM) 106% | viability, T/C (second compound 3 µM, first compound 0.01 µM) 103% | viability, T/C (second compound 3 µM, first compound 0.0316 µM) 81.2% | viability, T/C (second compound 3 µM, first compound 0.1 µM) 80.1% | viability, T/C (second compound 3 µM, first compound 0.316 µM) 64.7% | viability, T/C (second compound 3 µM, first compound 1 µM) 35.7%

C=CC(=O)N1CCN(c2nc(=O)n(-c3c(C)ccnc3C(C)C)c3nc(-c4c(O)cccc4F)c(F)cc23)C(C)C1 (configuration not stated) + CNC(C)C(=O)NC1CN(S(=O)(=O)c2cccc(S(=O)(=O)N3CCC4CCC(C(=O)NC(c5ccccc5)c5ccccc5)N4C(=O)C(NC(=O)C(C)NC)C3)c2)CCC2CCC(C(=O)NC(c3ccccc3)c3ccccc3)N2C1=O
> 10 µM: IC50 (curve of first compound, second compound 0.00316 µM) | IC50 (curve of first compound, second compound 0.01 µM) | IC50 (curve of first compound, second compound 0.0316 µM) | IC50 (curve of first compound, second compound 0.1 µM) | IC50 (curve of first compound, second compound 0.316 µM) | IC50 (curve of first compound, second compound 1 µM)
inactive: viability, T/C (second compound 0.00316 µM, first compound 0.0316 µM) 103% | viability, T/C (second compound 0.00316 µM, first compound 0.1 µM) 87.6% | viability, T/C (second compound 0.00316 µM, first compound 0.316 µM) 115% | viability, T/C (second compound 0.00316 µM, first compound 1 µM) 94.9% | viability, T/C (second compound 0.00316 µM, first compound 3.16 µM) 121% | viability, T/C (second compound 0.00316 µM, first compound 10 µM) 131% | viability, T/C (second compound 0.01 µM, first compound 0.0316 µM) 104% | viability, T/C (second compound 0.01 µM, first compound 0.1 µM) 99% | viability, T/C (second compound 0.01 µM, first compound 0.316 µM) 99.1% | viability, T/C (second compound 0.01 µM, first compound 1 µM) 99.3% | viability, T/C (second compound 0.01 µM, first compound 3.16 µM) 107% | viability, T/C (second compound 0.01 µM, first compound 10 µM) 111% | viability, T/C (second compound 0.0316 µM, first compound 0.0316 µM) 102% | viability, T/C (second compound 0.0316 µM, first compound 0.1 µM) 101% | viability, T/C (second compound 0.0316 µM, first compound 0.316 µM) 121% | viability, T/C (second compound 0.0316 µM, first compound 1 µM) 102% | viability, T/C (second compound 0.0316 µM, first compound 3.16 µM) 116% | viability, T/C (second compound 0.0316 µM, first compound 10 µM) 114% | viability, T/C (second compound 0.1 µM, first compound 0.0316 µM) 100% | viability, T/C (second compound 0.1 µM, first compound 0.1 µM) 106% | viability, T/C (second compound 0.1 µM, first compound 0.316 µM) 104% | viability, T/C (second compound 0.1 µM, first compound 1 µM) 106% | viability, T/C (second compound 0.1 µM, first compound 3.16 µM) 114% | viability, T/C (second compound 0.1 µM, first compound 10 µM) 106% | viability, T/C (second compound 0.316 µM, first compound 0.0316 µM) 114% | viability, T/C (second compound 0.316 µM, first compound 0.1 µM) 101% | viability, T/C (second compound 0.316 µM, first compound 0.316 µM) 100% | viability, T/C (second compound 0.316 µM, first compound 1 µM) 101% | viability, T/C (second compound 0.316 µM, first compound 3.16 µM) 115% | viability, T/C (second compound 0.316 µM, first compound 10 µM) 109% | viability, T/C (second compound 1 µM, first compound 0.0316 µM) 111% | viability, T/C (second compound 1 µM, first compound 0.1 µM) 91.9% | viability, T/C (second compound 1 µM, first compound 0.316 µM) 118% | viability, T/C (second compound 1 µM, first compound 1 µM) 113% | viability, T/C (second compound 1 µM, first compound 3.16 µM) 116% | viability, T/C (second compound 1 µM, first compound 10 µM) 117%

CNC(C)C(=O)NC1CN(S(=O)(=O)c2cccc(S(=O)(=O)N3CCC4CCC(C(=O)NC(c5ccccc5)c5ccccc5)N4C(=O)C(NC(=O)C(C)NC)C3)c2)CCC2CCC(C(=O)NC(c3ccccc3)c3ccccc3)N2C1=O (configuration not stated)
> 1 µM: IC50 (compound alone, run of 11/15/2022) | IC50 (curve of compound)
inactive: viability, T/C (compound 0.01 µM) 103% [middle of 9 runs] | viability, T/C (compound 0.0316 µM) 105% [middle of 9 runs] | viability, T/C (compound 0.1 µM) 103% [middle of 9 runs] | viability, T/C (compound 0.316 µM) 101% [middle of 9 runs] | viability, T/C (compound 1 µM) 93.7% [middle of 9 runs]

C=C(F)C(=O)N1CCN(c2nc(OCC3CCCN3C)nc3c2CCN(c2cccc4cccc(Cl)c24)C3)CC1CC#N (configuration not stated)
inactive: viability, T/C (compound 0.0316 µM) 94.3% and 102% and 97.8% | viability, T/C (compound 0.1 µM) 97.6% and 92.2% and 89.2% | viability, T/C (compound 0.316 µM) 101% and 95.3% and 93% | viability, T/C (compound 1 µM) 108% and 93% and 105% | viability, T/C (compound 3.16 µM) 98% and 90.9% and 102%
5.59 µM and 6 µM and 6.86 µM: IC50 (curve of compound)
